Test results as given in patent US20240360107A1, “AN EIF4A INHIBITOR WITH A NOVEL MECHANISM OF ACTION” (ARIZONA BOARD OF REGENTS ON BEHALF OF THE UNIVERSITY OF …, priority 2021, published 2024).
“Also recorded” adds a separate entry of the source. Where two headings read alike, the source gives them in different places.

Assays:
Type in all cases: biochemical
eIF4A [1] = target: T1, eIF4A (Homo sapiens, UniProt P60842); test: kinetic testing using the malachite green assay (ATP and RNA titration); design: 6xHis with TEV protease site (N, cleaved yes); made in house; host or cells: E. coli BL21-CodonPlus; conditions: for Alpha value for ATP / Ki / Alpha value for RNA: mixed-model inhibition fit
Experimental: (§1) ATP titration (left) used 250 μg/mL RNA. Data were fit using unbiased mixed-model inhibition in Prism 6.0. Alpha value for ATP is 0.424, indicating an ATP-uncompetitive inhibitor. Kiapp for ATP is 10.3 μM. RNA titration (right) used 250 μM ATP. […] Kiapp for RNA is 9.59 μM. Data shown are an average of 3 independent experiments.
as §1, with “was done with” for “used”, “0.514,” for “0.424,”, “ATP=4.79” for “ATP is 10.3”, “RNA=4.27” for “RNA is 9.59”
(§2) ATPase assay. Recombinant WT or mutant eIF4A was added to a clear bottom 384 well plate (Greiner) in ATPase buffer (20 mM Tris pH 7.4, 80 mM KCl, 2.5 mM MgCl2, 1 mM DTT, 1% glycerol). Compounds were added and the plate was incubated at 37° C. for 20 min. ATP/RNA solution was added to afford a 20 μL per well reaction volume with 750 nM eIF4A, 250 μM ATP, and 0.25 mg/mL Yeast RNA (Sigma) for the initial screen and dose responses, and varying concentrations of ATP and RNA for the kinetic assays. The plate was incubated for 4 h at 37° C. for the initial screen and dose responses, and at seven time points (1 hour-7 hours) for kinetic assays. 0.04% v/v (final concentration) Tween-20 was added to a Malachite Green solution, and the Malachite Green (40 μL per well) was added. The solution was incubated for 5 minutes at room temperature and Absorbance at 660 nm was read on a SpectraMax iD5 plate reader (Molecular Devices).

[2] = system: cap-dependent translation of firefly luciferase; test: in vitro translation of bicistronic luciferase reporter in rabbit reticulocyte lysate, firefly luciferase; conditions: Cycloheximide 600 μM, Silvestrol 100 nM
Text: A bicistronic luciferase reporter ([…]) (FIG. 7B, top) was programmed into rabbit reticulocyte lysates, cellular extracts capable of performing both cap-dependent and Hepatitis C virus (HCV) internal ribosomal entry site (IRES)-mediated translation. eIF4A is the enzymatic driver of cap-dependent translation and is not involved in translation through HCV IRES. Compounds that inhibit eIF4A should inhibit cap-dependent translation of firefly (FF) luciferase while leaving IRES-mediated translation of Renilla (Ren) luciferase relatively unaffected. The inhibitory activities of cycloheximide, silvestrol, and 28 were assessed in this in vitro translation assay (FIG. 7B, bottom). […] The ability of compound 28 to preferentially target cap-dependent translation in a similar manner as silvestrol provides promising evidence that 28 inhibits eIF4A and not other proteins in the general translational machinery.
The dual-luciferase reporter plasmid pSP/(CAG)33/FF/HCV/Ren-pA51 was linearized with BamHI and subsequently in vitro transcribed using the Promega mMessage mMachine SP6 transcription kit, according to manufacturer's specifications. RNA was precipitated with LiCI and resuspended in H2O for use in in vitro translation experiments. Rabbit reticulocyte lysate (RRL) (nuclease-treated, Promega) was used to assess inhibitory effects of 28 on translation of the dual-reporter. Briefly, a reaction consisting of 50% RRL, 30 ng/μL reporter RNA, 10 μM Amino Acid Mixture Minus Methionine, 10 μM Amino Acid Mixture Minus Leucine, […], 1 U/μL RNAseOut (Thermo), and drug (final DMSO concentration 1%) were incubated at 30° C. for 90 minutes. The reaction was quenched with 50 μL 1× Passive Lysis Buffer (Promega), 10 μL of the mix was transferred to a 96-well white plate (Cellstar), and the Dual-Reporter Luciferase Assay System (Promega) was used to generate luminescence according to the manufacturer's instructions. Luminescence was detected using a plate reader (BioTek HT Synergy).

eIF4A R110L mutant = target: T2, eIF4A R110L mutant (Homo sapiens, UniProt P60842, R110L); test: malachite green ATPase assay, eIF4A mutant
T2 construct: 6xHis with TEV protease site (N, cleaved yes); made in house; host or cells: E. coli BL21-CodonPlus
Experimental: (§3) Furthermore, T158 is predicted to form a hydrogen bond to the […] of the 6-nitro quinoline substitution of compound 28. The ability of the 6-nitro group to form two strong interactions with the binding pocket of eIF4A is the most likely explanation for why this substitution afforded 28 such a large gain in potency for compound 28 compared to other analogs in the inhibitor series. Mutagenesis and recombinant production of mutant eIF4A protein was performed to confirm the docking pose and predicted interactions between compound 28 and its eIF4A binding pocket (FIG. 6D).
as §2

eIF4A T158V mutant = target: T3, eIF4A T158V mutant (Homo sapiens, UniProt P60842, T158V); test: malachite green ATPase assay, eIF4A mutant
T3 construct: 6xHis with TEV protease site (N, cleaved yes); made in house; host or cells: E. coli BL21-CodonPlus
Experimental: as §3, §2

eIF4A R110K mutant = target: T4, eIF4A R110K mutant (Homo sapiens, UniProt P60842, R110K); test: malachite green ATPase assay, eIF4A mutant
T4 construct: 6xHis with TEV protease site (N, cleaved yes); made in house; host or cells: E. coli BL21-CodonPlus
Experimental: as §3, §2

eIF4A T158A mutant = target: T5, eIF4A T158A mutant (Homo sapiens, UniProt P60842, T158A); test: malachite green ATPase assay, eIF4A mutant
T5 construct: 6xHis with TEV protease site (N, cleaved yes); made in house; host or cells: E. coli BL21-CodonPlus
Experimental: as §3, §2

eIF4A R110M mutant = target: T6, eIF4A R110M mutant (Homo sapiens, UniProt P60842, R110M); test: malachite green ATPase assay, eIF4A mutant
T6 construct: 6xHis with TEV protease site (N, cleaved yes); made in house; host or cells: E. coli BL21-CodonPlus
Experimental: as §3, §2

eIF4A R110E mutant = target: T7, eIF4A R110E mutant (Homo sapiens, UniProt P60842, R110E); test: malachite green ATPase assay, eIF4A mutant
T7 construct: 6xHis with TEV protease site (N, cleaved yes); made in house; host or cells: E. coli BL21-CodonPlus
Experimental: as §3, §2

eIF4A [3] = target: T1, eIF4A; test: RNA-stimulated malachite green ATPase assay; design: 6xHis with TEV protease site (N, cleaved yes); made in house; host or cells: E. coli BL21-CodonPlus; conditions: for IC50: 750 nM eIF4A, 250 μM ATP, 0.25 mg/mL Yeast RNA, 4 h at 37° C.
Experimental: Human eIF4A protein was produced recombinantly and a greater than 100,000-compound screen for inhibitors was completed using a malachite green ATPase assay (FIG. 11A). […] A stable mixture of yeast RNAs was added in an effort to improve this system and create a more biologically relevant eIF4A assay. eIF4A ATPase activity was accelerated without a statistically significant increase in the background signal in the presence of this RNA (FIG. 11B), and the new conditions gave excellent statistical parameters in a 384-well plate format (FIG. 11C).
as §2

[4] = ATP titration, 250 μg/mL RNA, read-out: Kiapp for ATP
[5] = RNA titration, 250 μM ATP, read-out: Kiapp for RNA

T1 sequence (P60842 whole entry): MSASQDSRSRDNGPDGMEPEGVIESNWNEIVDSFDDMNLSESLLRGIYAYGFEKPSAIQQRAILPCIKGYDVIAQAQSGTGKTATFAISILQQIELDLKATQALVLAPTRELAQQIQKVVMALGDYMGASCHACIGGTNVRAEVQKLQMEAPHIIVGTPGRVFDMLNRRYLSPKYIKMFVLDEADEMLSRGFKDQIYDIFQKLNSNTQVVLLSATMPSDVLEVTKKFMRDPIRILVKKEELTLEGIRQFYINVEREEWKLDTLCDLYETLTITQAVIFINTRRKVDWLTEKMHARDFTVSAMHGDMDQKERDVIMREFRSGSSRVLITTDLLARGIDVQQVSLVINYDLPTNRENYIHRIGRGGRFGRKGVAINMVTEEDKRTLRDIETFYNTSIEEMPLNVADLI
T3 sequence (P60842 whole entry T158V): as the sequence (P60842 whole entry) above, with T158V counted along it
T7 sequence (P60842 whole entry R110E): as the sequence (P60842 whole entry) above, with R110E counted along it
T2 sequence (P60842 whole entry R110L): as the sequence (P60842 whole entry) above, with R110L counted along it
T4 sequence (P60842 whole entry R110K): as the sequence (P60842 whole entry) above, with R110K counted along it
T6 sequence (P60842 whole entry R110M): as the sequence (P60842 whole entry) above, with R110M counted along it
T5 sequence (P60842 whole entry T158A): as the sequence (P60842 whole entry) above, with T158A counted along it

| SMILES | mechanism of inhibition with respect to ATP (eIF4A [1]) | mechanism of inhibition with respect to RNA (eIF4A [1]) | Alpha value for ATP (eIF4A [1]; ATP titration, 250 μg/mL RNA) | Ki (eIF4A [1]; [4]) [µM] | Alpha value for RNA (eIF4A [1]; RNA titration, 250 μM ATP) | Ki (eIF4A [1]; [5]) [µM] | effect on cap-dependent translation (firefly luciferase) [2] | potency against eIF4A mutant in ATPase assay (eIF4A R110L mutant) | potency against eIF4A mutant in ATPase assay (eIF4A T158V mutant) | potency against eIF4A mutant in ATPase assay (eIF4A R110K mutant) | potency against eIF4A mutant in ATPase assay (eIF4A T158A mutant) | potency against eIF4A mutant in ATPase assay (eIF4A R110M mutant) | potency against eIF4A mutant in ATPase assay (eIF4A R110E mutant) | IC50 (eIF4A [3]) [µM] | potency in the eIF4A ATPase assay (in words) (eIF4A [3]; comparison within the series) |
| --- | --- | --- | --- | --- | --- | --- | --- | --- | --- | --- | --- | --- | --- | --- | --- |
| CCCCc1ccc(-c2ccc(-c3cc(C(=O)O)c4cc([N+](=O)[O-])ccc4n3)o2)cc1 [Compound 28, 2-(5-(4-butylphenyl)furan-2-yl)-6-nitroquinoline-4-carboxylic acid] | ATP-uncompetitive | RNA-competitive | 0.514 | 4.79 | 4.52×10^21 | 4.27 | inhibit cap-dependent translation of firefly luciferase; also recorded: inhibits cap-dependent translation | lost all potency | lost all potency | remained moderately potent | lost all potency | lost all potency | lost all potency | 8.6 ± 0.944 | most potent inhibitor of eIF4A ATPase activity; also recorded: over two-fold more potent than any other molecule previously produced in the series |
| CCCCc1ccc(-c2ccc(-c3cc(C(=O)O)c4cc(Br)ccc4n3)o2)cc1 [Compound 1, 6-bromo-2-(5-(4-butylphenyl)furan-2-yl)quinoline-4-carboxylic acid] | uncompetitive with respect to ATP | RNA-competitive | 0.424 | 10.3 | 4.53×10^13 | 9.59 |  |  |  |  |  |  |  | 26.6 ± 2.46 |  |
